Entries after “also recorded” stand apart in the source; their conditions may differ.
Legend:
LRH-1 = test: Quantitative RT-PCR of LRH-1 transcript levels in treated human islets; format: cell-based; conditions: for LRH-1 expression (transcript levels): 10 nM 17β-estradiol (6 hours) or 10 or 50 uM Formula II (any time point)
Experimental: (§1) INS-1E cells or islets (rat or human) were cultured in phenol red free medium containing 10% Charcoal-stripped FCS for 48 h. The latter removes all traces of endogenous steroids, which may skew results. Subsequently, 0.0001% DMSO (vehicle) and/or 10 nM 17β-estradiol were added to the media. Alternatively human islets were also treated with increasing concentrations of either DMSO (vehicule) or with a combination of estrogen and the LRH-1 agonist of Formula II (SevenHills Pharma, Fort Collins, USA) for various time intervals. For apoptosis studies (FIG. 8A), islets were pre-treated with 0.1% DMSO (vehicule) or with 10 μM of the LRH-1 agonist of Formula II. Twenty-four hours later, DMSO or the LRH-1 agonist of Formula II were added again to the medium and incubated for 1 extra hour prior to the addition of either a cocktail of human cytokines (2 ng/ml IFN-γ, IL-1β and TNF-α). Samples of 50 islets were then collected at 24 and 72 hours. The media was replenished with DMSO and the LRH-1 agonist of Formula II at 24 and 48 hours.
(§2) Total RNA was extracted using the RNeasy Micro Kit (Qiagen) and 1-2 μg was converted into cDNA with the Superscript II Reverse transcriptase (Invitrogen). Primers were designed using the Primer Express software (Applera Europe, Rotkreuz, Switzerland) and sequences are provided in Table 1. Real time PCR was performed using an ABI 7000 Sequence Detection System (Applera Europe), and PCR products were quantified fluorometrically using the FastStart Universal SYBR Green Master (Roche Diagnostics, Rotkreuz, Switzerland). Three distinct amplifications were performed in duplicate for each transcript, and mean values were normalized to the mean value of the reference mRNA cyclophilin.

SHP = test: Quantitative RT-PCR of SHP (LRH-1 downstream target) transcript levels in treated human islets; format: cell-based; conditions: for Further stimulation of SHP expression: human islets, increased concentration of Formula II or addition of 17β-estradiol
Experimental: as §1, §2

control islets = test: Glucose-stimulated insulin secretion, control (non-diabetic) human islets; format: cell-based
Experimental: (§3) Twenty human islets/sample were preincubated with KRBH buffer (135 mM NaCl, 3.6 mM KCl, 2 mM NaHCO3, 0.5 mM NaH2PO4, 0.5 mM MgSO4, 1.5 mM CaCl2, 10 mM HEPES, pH 7.4, and 0.1% bovine serum albumin) containing 2.5 mM glucose for 30 min. Cells were then incubated for 30 min in KRBH buffer containing 2.5 mM or 16.5 mM glucose. In some instances islets were also cultured in the presence of increasing concentrations of a LRH-1 agonist of Formula II or glibenclamide. Insulin content, obtained by 10% acetic acid/ethanol (v/v) treatment on islets, and secreted insulin were quantified using the rat insulin enzyme immunoassay kit (Spi-Bio, Montigny le Bretonneux, France).

human islets [1] = test: MTT toxicity test (cell viability) in isolated human islets; format: cell-based; conditions: for Islet viability (MTT): islets of the first Type 2 diabetic donor, 48 h, Formula II at 50 uM
Experimental: The MTT (C,N-diphenyl-N′-4,5-dimethyl thiazol-2-yl tetrazolium bromide) colorimetric assay (reduction of tetrazolium salt to formazan) was used to measure cell viability. The assay provides an indirect estimation of mitochondrial oxidative processes of living cells (Janjic, 1992). Briefly, 40 isolated human islets were incubated for 24 or 48 hours with DMSO or a combination of DMSO and the LRH-1 agonist of Formula II. Islets were washed and pre-incubated with KRBH at 37° C. for 40 minutes. Islets were then incubated at 37° C. for 90 minutes with KRBH containing yellow MTT (0.5 mg/ml). Cells were wash and incubated for 20 minutes at room temperature in DMSO to solubilize formazan crystals. Colorimetric measurements were performed at 570 nm with reference wavelength 650 nm automatically subtracted.

human islets [2] = test: Cytokine-induced apoptosis in human islets (Cell Death Detection ELISA); format: cell-based; conditions: 10 uM, cytokines 2 ng/ml IFN-γ, IL-1β and TNF-α, 24 hours post-treatment
Experimental: INS-1E cells or islets (rat or human) were cultured in phenol red free medium containing 10% Charcoal-stripped FCS for 48 h. The latter removes all traces of endogenous steroids, which may skew results. Subsequently, 0.0001% DMSO (vehicle) and/or 10 nM 17β-estradiol were added to the media. Alternatively human islets were also treated with increasing concentrations of either DMSO (vehicule) or with a combination of estrogen and the LRH-1 agonist of Formula II (SevenHills Pharma, Fort Collins, USA) for various time intervals. For apoptosis studies (FIG. 8A), islets were pre-treated with 0.1% DMSO (vehicule) or with 10 μM of the LRH-1 agonist of Formula II. […]
For proliferation, 10 μM BrdU was added to INS-1E cells for 3 h, and to rat or human islets for 24 h. […] Cell apoptosis induced either by cytokines or streptozotocin was measured using the TUNEL assay (In Situ Cell Death Detection Kit, Roche). Alternatively, the Cell Death Detection ELISA^PLUS (Roche) was used to quantify the degree of cytoplasmic histone-associated-DNA-fragments. Results of BrdU and TUNEL assays are expressed as a percentage of BrdU- or TUNEL-positive cells (fluorescein- or TMR-red-labelled nuclei) over the total amount of cells (nuclei staining by DAPI). […]

Type 2 diabetic islets = test: Glucose-stimulated insulin secretion, islets from Type 2 diabetic donors; format: cell-based, human
Experimental: as §3

[3] = molecular target: T1, ligand binding domain of human LRH1 (Homo sapiens, UniProt O00482); conditions: Whitby et al. (2006); cited from earlier work
T1 construct: made in house
T1 sequence (O00482 300-541): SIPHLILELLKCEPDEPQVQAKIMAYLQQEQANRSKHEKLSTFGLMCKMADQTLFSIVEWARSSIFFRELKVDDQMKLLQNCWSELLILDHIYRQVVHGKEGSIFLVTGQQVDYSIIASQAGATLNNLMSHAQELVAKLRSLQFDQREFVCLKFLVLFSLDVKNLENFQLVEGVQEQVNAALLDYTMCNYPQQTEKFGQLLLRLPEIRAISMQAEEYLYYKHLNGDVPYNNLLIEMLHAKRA

[4] = islets from a second Type 2 diabetic donor

C[C@]12CC[C@@H]3c4ccc(O)cc4CC[C@H]3[C@@H]1CC[C@@H]2O [17β-estradiol, reference compound]
LRH-1 expression (transcript levels) (LRH-1): transiently increased
Further stimulation of SHP expression (SHP): did not further stimulate expression of SHP

CCC/C=C(\CCC)C1=C(c2cccc(OC)c2)C2(Nc3ccccc3)CCCC2C1 (stereo not drawn) [Formula II]
Increase in basal insulin exocytosis (control islets; 50 uM, low glucose): 50%
Glucose-induced insulin secretion (control islets; 16.5 mM glucose): unchanged
Viability by MTT (cytotoxicity) (human islets [1]; human islets, up to 50 uM, 24 or 48 hours post treatment): no toxic effects; also recorded: no apparent detrimental effect
Islet viability (MTT) (human islets [1]): slightly reduced
Cytokine-induced enrichment in apoptotic cells, 24 hours (human islets [2]): completely abrogated
LRH-1 expression (transcript levels) (LRH-1): did not enhance transcript levels
LRH-1 expression on addition to 17β-estradiol (LRH-1; Formula II combined with 17β-estradiol): prevented the induction of LRH-1 expression
Glucose-induced insulin secretion (Type 2 diabetic islets; islets from a Type 2 diabetic donor, 50 uM, not significant): slight increase
Insulin secretion in response to high glucose concentrations (Type 2 diabetic islets; [4]): increased insulin secretion
Insulin secretion in response to low glucose concentrations (Type 2 diabetic islets; [4]): increased insulin secretion
SHP transcript levels, increase (SHP; human islets treated for 10 hours, transient): 2 fold
Further stimulation of SHP expression (SHP): did not further stimulate expression of SHP
EC50 [3]: 0.43 µM

COc1ccc(Cl)cc1C(=O)NCCc1ccc(S(=O)(=O)NC(=O)NC2CCCCC2)cc1 [Glibenclamide, reference compound]
Islet viability (MTT) (human islets [1]): impaired cell viability
Insulin secretion at high glucose as compared to control islets (Type 2 diabetic islets; islets from a Type 2 diabetic donor, high glucose (16.5 mM)): 214%
Increase in insulin secretion at low glucose (Type 2 diabetic islets; islets from a Type 2 diabetic donor, low glucose): 80%

— patent US20130210143A1, “NOVEL METHODS FOR PREVENTING OR TREATING DIABETES” (FUNDACION PUBLICA ANDALUZA PROGRESO Y SALUD, priority 2010, published 2013)
